The values that follow are results of earlier work, collected in patent US20110105442A2, “MEANS AND METHODS FOR CONTROLLING COMMENSALES” (Biotechnology Research And Information Network, AG …, priority 2008, published 2011).

Like-named read-outs stand apart in the source and are kept apart here.

This data set deals with certain Gram-positive and Gram-negative bacteria including commensales of the skin. Conditions: Malmstrøm et al., 2002, biofilm not assayed.

Turning to `C/C=C/C1=CC(=O)[C@H](O)[C@H]1O` (stereo in doubt) [Terrein, 4,5-Dihydroxy-3-(1-propenyl)-2-cyclopenten-1-one], the antibacterial activity entry is “weak antibacterial activity”. The antibacterial activity entry (listed as terrein) is “weak to negligible activity”.
